In this assay the target is 72 kDa type IV collagenase (Homo sapiens, UniProt P08253).
Chain of 72 kDa type IV collagenase (P08253 whole entry): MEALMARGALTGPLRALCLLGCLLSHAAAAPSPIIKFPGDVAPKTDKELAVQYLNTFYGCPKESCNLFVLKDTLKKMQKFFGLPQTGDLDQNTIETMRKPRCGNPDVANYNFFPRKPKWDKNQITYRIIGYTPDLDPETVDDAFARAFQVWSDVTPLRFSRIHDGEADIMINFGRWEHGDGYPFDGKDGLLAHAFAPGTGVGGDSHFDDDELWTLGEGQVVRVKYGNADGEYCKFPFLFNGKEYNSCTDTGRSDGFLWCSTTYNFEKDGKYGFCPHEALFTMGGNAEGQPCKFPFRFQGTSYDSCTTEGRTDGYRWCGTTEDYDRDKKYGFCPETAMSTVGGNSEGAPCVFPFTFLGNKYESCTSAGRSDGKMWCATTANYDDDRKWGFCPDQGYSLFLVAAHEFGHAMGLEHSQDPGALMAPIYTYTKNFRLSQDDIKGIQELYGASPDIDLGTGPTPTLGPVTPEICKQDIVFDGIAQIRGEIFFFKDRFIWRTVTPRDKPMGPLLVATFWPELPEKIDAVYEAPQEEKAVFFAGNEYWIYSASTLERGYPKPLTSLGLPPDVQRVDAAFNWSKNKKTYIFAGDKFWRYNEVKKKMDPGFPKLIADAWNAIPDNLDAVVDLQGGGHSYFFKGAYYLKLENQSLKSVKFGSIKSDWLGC
Description: Inhibition of human Matrix metalloprotease-2 (gelatinase-A)
As for `CNC(=O)CNC(=O)Nc1n[nH]c(=S)s1`, the Ki is over 100 µM.
The molecule `CNC(=O)[C@H](Cc1c(F)c(F)c(F)c(F)c1F)NC(=O)Nc1nnc(S)s1` displayed a Ki of 3 µM.
Take `CNC(=O)[C@H](Cc1ccccc1)NC(=O)Nc1nnc(S)s1`: the Ki was 3 µM.
`CN(C)C(=O)[C@H](Cc1ccccc1)NC(=O)Nc1nnc(S)s1` showed a Ki of 226 µM.
As for `NC(=O)[C@H](Cc1ccccc1)NC(=O)Nc1nnc(S)s1`, the Ki was over 200 µM.
`CNC(=O)[C@H](CO)NC(=O)Nc1n[nH]c(=S)s1` displayed a Ki of over 200 µM.

The Ki is a measure of affinity in units of concentration, obtained from inhibition or displacement.

(Values after ChEMBL document CHEMBL1148319, “A molecular basis for the selectivity of thiadiazole urea inhibitors with stromelysin-1 and gelatinase-A from generalized born molecular dynamics simulations” (J Med Chem, 2004).)
